Like-named read-outs stand apart in the source and are kept apart here.
What was measured:
Test in all cases: Test A preemergence
Assay type in all cases: in vivo
[1] = tested on: giant foxtail (Setaria faberii); conditions: Setaria faberi, pre-emergence, 240 h; for pest or weed control at 125 g/ha: 125 g ai/ha; for pest or weed control at 500 g/ha: 500 g ai/ha
Method in brief: (§1)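 Visual injury, scored on a 0–100 scale relative to untreated controls, was recorded about 10 d after application. Treatments were a preemergence soil spray over planted seeds or a postemergence spray on plants at the one- to two-leaf stage, 2 to 10 cm tall, all in loam soil–sand blend in the greenhouse.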

[2] = tested on: pigweed (Amaranthus retroflexus); conditions: Amaranthus retroflexus, pre-emergence, 240 h; for pest or weed control at 125 g/ha: 125 g ai/ha; for pest or weed control at 500 g/ha: 500 g ai/ha
[3] = tested on: ragweed (common ragweed, Ambrosia elatior); conditions: Ambrosia artemisiifolia, pre-emergence, 240 h; for pest or weed control at 125 g/ha: 125 g ai/ha; for pest or weed control at 500 g/ha: 500 g ai/ha
Method in brief: as §1

[4] = tested on: barnyardgrass (Echinochloa crus-galli); conditions: Echinochloa crus-galli, pre-emergence, 240 h; for pest or weed control at 125 g/ha: 125 g ai/ha; for pest or weed control at 500 g/ha: 500 g ai/ha
Method in brief: as §1

[5] = tested on: ryegrass, Italian (Italian ryegrass, Lolium multiflorum); conditions: Lolium multiflorum, pre-emergence, 240 h; for pest or weed control at 125 g/ha: 125 g ai/ha; for pest or weed control at 500 g/ha: 500 g ai/ha
Method in brief: as §1

[6] = preemergence, visual injury rating, 0 to 100 scale where 0 is no effect and 100 is complete control, approximately 10 d, read-out: Foxtail, Giant plant response rating
[7] = preemergence, 0 to 100 scale where 0 is no effect and 100 is complete control, read-out: Foxtail, Giant plant response rating
[8] = preemergence, visual injury rating, 0 to 100 scale where 0 is no effect and 100 is complete control, approximately 10 d, read-out: Pigweed plant response rating
[9] = preemergence, 0 to 100 scale where 0 is no effect and 100 is complete control, read-out: Pigweed plant response rating
[10] = preemergence, visual injury rating, 0 to 100 scale where 0 is no effect and 100 is complete control, approximately 10 d, read-out: Ragweed plant response rating
[11] = preemergence, 0 to 100 scale where 0 is no effect and 100 is complete control, read-out: Ragweed plant response rating
[12] = preemergence, visual injury rating, 0 to 100 scale where 0 is no effect and 100 is complete control, approximately 10 d, read-out: Barnyardgrass plant response rating
[13] = preemergence, 0 to 100 scale where 0 is no effect and 100 is complete control, read-out: Barnyardgrass plant response rating
[14] = preemergence, visual injury rating, 0 to 100 scale where 0 is no effect and 100 is complete control, approximately 10 d, read-out: Ryegrass, Italian plant response rating
[15] = preemergence, 0 to 100 scale where 0 is no effect and 100 is complete control, read-out: Ryegrass, Italian plant response rating
[16] = preemergence, visual rating after approx. 10 d, 0 to 100 scale where 0 is no effect and 100 is complete control, read-out: Plant response rating, Foxtail, Giant
[17] = preemergence, visual rating after approx. 10 d, 0 to 100 scale where 0 is no effect and 100 is complete control, read-out: Plant response rating, Pigweed
[18] = preemergence, visual rating after approx. 10 d, 0 to 100 scale where 0 is no effect and 100 is complete control, read-out: Plant response rating, Ragweed
[19] = preemergence, visual rating after approx. 10 d, 0 to 100 scale where 0 is no effect and 100 is complete control, read-out: Plant response rating, Barnyardgrass
[20] = preemergence, visual rating after approx. 10 d, 0 to 100 scale where 0 is no effect and 100 is complete control, read-out: Plant response rating, Ryegrass, Italian
[21] = Preemergence, visual injury vs untreated controls after approximately 10 d, read-out: Foxtail, Giant plant response rating (0 to 100 scale where 0 is no effect and 100 is complete control)
[22] = Preemergence, visual injury vs untreated controls after approximately 10 d, read-out: Pigweed plant response rating (0 to 100 scale where 0 is no effect and 100 is complete control)
[23] = Preemergence, visual injury vs untreated controls after approximately 10 d, read-out: Ragweed plant response rating (0 to 100 scale where 0 is no effect and 100 is complete control)
[24] = Preemergence, visual injury vs untreated controls after approximately 10 d, read-out: Barnyardgrass plant response rating (0 to 100 scale where 0 is no effect and 100 is complete control)
[25] = Preemergence, visual injury vs untreated controls after approximately 10 d, read-out: Ryegrass, Italian plant response rating (0 to 100 scale where 0 is no effect and 100 is complete control)

| Structure (SMILES) | pest or weed control at 125 g/ha [1, 7] [%] | pest or weed control at 125 g/ha [2, 9] [%] | pest or weed control at 125 g/ha [3, 11] [%] | pest or weed control at 125 g/ha [4, 13] [%] | pest or weed control at 125 g/ha [5, 15] [%] | pest or weed control at 125 g/ha [1, 16] [%] | pest or weed control at 125 g/ha [2, 17] [%] | pest or weed control at 125 g/ha [3, 18] [%] | pest or weed control at 125 g/ha [4, 19] [%] | pest or weed control at 125 g/ha [5, 20] [%] | pest or weed control at 500 g/ha [1, 21] [%] | pest or weed control at 500 g/ha [2, 22] [%] | pest or weed control at 500 g/ha [3, 23] [%] | pest or weed control at 500 g/ha [4, 24] [%] | pest or weed control at 500 g/ha [5, 25] [%] | also measured |
| --- | --- | --- | --- | --- | --- | --- | --- | --- | --- | --- | --- | --- | --- | --- | --- | --- |
| COc1cc([C@H]2CN(C)C(=O)[C@@H]2C(=O)Nc2ccccc2S(C)(=O)=O)ccc1F [Compound 1302] |  |  |  |  |  |  |  |  |  |  |  |  |  |  |  | pest or weed control at 125 g/ha [1, 6]: 90%; pest or weed control at 500 g/ha [1, 7]: 90%; pest or weed control at 125 g/ha [2, 8]: 0%; pest or weed control at 500 g/ha [2, 9]: 30%; pest or weed control at 125 g/ha [3, 10]: 0%; pest or weed control at 500 g/ha [3, 11]: 50%; pest or weed control at 125 g/ha [4, 12]: 60%; pest or weed control at 500 g/ha [4, 13]: 90%; pest or weed control at 125 g/ha [5, 14]: 0%; pest or weed control at 500 g/ha [5, 15]: 0% |
| O=C(Nc1cccc(Cl)c1F)[C@H]1C(=O)N(C2CC2)CC[C@@H]1c1cccc(C(F)(F)F)c1 [Compound 926] | 80 | 0 | 0 | 30 | 0 |  |  |  |  |  |  |  |  |  |  | pest or weed control at 500 g/ha ([1]; preemergence, visual injury rating about 10 d after treatment, 0 to 100 scale (0 no effect, 100 complete control), read-out: Foxtail, Giant plant response rating): 90%; pest or weed control at 500 g/ha ([2]; preemergence, visual injury rating about 10 d after treatment, 0 to 100 scale (0 no effect, 100 complete control), read-out: Pigweed plant response rating): 0%; pest or weed control at 500 g/ha ([3]; preemergence, visual injury rating about 10 d after treatment, 0 to 100 scale (0 no effect, 100 complete control), read-out: Ragweed plant response rating): 0%; pest or weed control at 500 g/ha ([4]; preemergence, visual injury rating about 10 d after treatment, 0 to 100 scale (0 no effect, 100 complete control), read-out: Barnyardgrass plant response rating): 90%; pest or weed control at 500 g/ha ([5]; preemergence, visual injury rating about 10 d after treatment, 0 to 100 scale (0 no effect, 100 complete control), read-out: Ryegrass, Italian plant response rating): 0% |
| CSc1ccccc1NC(=O)[C@H]1C(=O)N(C)CC[C@@H]1c1ccc2c(c1)OC(F)(F)O2 [Compound 814] |  |  |  |  |  | 0 | 0 | 0 | 0 | 0 |  |  |  |  |  | pest or weed control at 31 g/ha ([1]; Preemergence, 31 g ai/ha, 0 to 100 scale (0 no effect, 100 complete control), read-out: Plant response rating, Foxtail, Giant): 0%; pest or weed control at 31 g/ha ([2]; Preemergence, 31 g ai/ha, 0 to 100 scale (0 no effect, 100 complete control), read-out: Plant response rating, Pigweed): 0%; pest or weed control at 31 g/ha ([3]; Preemergence, 31 g ai/ha, 0 to 100 scale (0 no effect, 100 complete control), read-out: Plant response rating, Ragweed): 0%; pest or weed control at 31 g/ha ([4]; Preemergence, 31 g ai/ha, 0 to 100 scale (0 no effect, 100 complete control), read-out: Plant response rating, Barnyardgrass): 0%; pest or weed control at 31 g/ha ([5]; Preemergence, 31 g ai/ha, 0 to 100 scale (0 no effect, 100 complete control), read-out: Plant response rating, Ryegrass, Italian): 0% |
| O=C1NC[C@H](c2ccc3c(c2)CCO3)[C@H]1C(=O)Nc1cccc(F)c1F [Compound 785] |  |  |  |  |  | 90 | 0 | 0 | 90 | 0 | 90 | 20 | 0 | 90 | 40 |  |
| CCc1cc(CC)cc([C@H]2CN(C)C(=O)[C@@H]2C(=O)Nc2ccccc2C(F)(F)F)c1 [Compound 737] |  |  |  |  |  | 90 | 0 | 0 | 70 | 40 |  |  |  |  |  | pest or weed control at 500 g/ha ([1]; preemergence, 0 to 100 scale, 0 = no effect, 100 = complete control, read-out: Plant response rating, Foxtail, Giant): 90%; pest or weed control at 500 g/ha ([2]; preemergence, 0 to 100 scale, 0 = no effect, 100 = complete control, read-out: Plant response rating, Pigweed): 0%; pest or weed control at 500 g/ha ([3]; preemergence, 0 to 100 scale, 0 = no effect, 100 = complete control, read-out: Plant response rating, Ragweed): 0%; pest or weed control at 500 g/ha ([4]; preemergence, 0 to 100 scale, 0 = no effect, 100 = complete control, read-out: Plant response rating, Barnyardgrass): 80%; pest or weed control at 500 g/ha ([5]; preemergence, 0 to 100 scale, 0 = no effect, 100 = complete control, read-out: Plant response rating, Ryegrass, Italian): 70% |
| CN1CC[C@H](c2ccc(C(F)(F)F)cc2)[C@@H](C(=O)Nc2cccc(Cl)c2F)C1=O [Compound 1228] |  |  |  |  |  |  |  |  |  |  |  |  |  |  |  | pest or weed control at 125 g/ha [1, 6]: 90%; pest or weed control at 500 g/ha [1, 7]: 90%; pest or weed control at 125 g/ha [2, 8]: 20%; pest or weed control at 500 g/ha [2, 9]: 60%; pest or weed control at 125 g/ha [3, 10]: 0%; pest or weed control at 500 g/ha [3, 11]: 0%; pest or weed control at 125 g/ha [4, 12]: 90%; pest or weed control at 500 g/ha [4, 13]: 90%; pest or weed control at 125 g/ha [5, 14]: 30%; pest or weed control at 500 g/ha [5, 15]: 60% |
| COc1c(F)ccc([C@H]2CNC(=O)[C@@H]2C(=O)Nc2ccccc2S(C)(=O)=O)c1Cl [Compound 916] | 70 | 0 | 0 | 30 | 0 |  |  |  |  |  | 80 | 20 | 70 | 80 | 30 |  |
| CN1CC[C@H](c2cccc(Cl)c2)[C@@H](C(=O)Nc2ccccc2S(C)(=O)=O)C1=O [Compound 923] | 0 | 0 | 0 | 0 | 0 |  |  |  |  |  | 70 | 0 | 0 | 70 | 0 |  |

Source: patent US12077503B2, “Substituted cyclic amides and their use as herbicides” (FMC CORPORATION, priority 2015, dated 2024)
